From article PMC11878095, “Interspecies signaling modulates the biosynthesis of antimicrobial secondary metabolites related to biological control activities of Pseudomonas fluorescens 2P24” (Microbiology Spectrum, 2025) come the findings set out here.

For this test, the target named is T1, PhlH (2P24_PhlH) (Pseudomonas fluorescens, UniProt Q4JIX5).
T1 construct: purified recombinant His6-tagged PhlH
Briefly: ITC ([…] °C, one-site model); EMSA shows PLT releases PhlH from phlG promoter DNA. Type of test: binding.

T1 sequence (Q4JIX5 entry or part of it): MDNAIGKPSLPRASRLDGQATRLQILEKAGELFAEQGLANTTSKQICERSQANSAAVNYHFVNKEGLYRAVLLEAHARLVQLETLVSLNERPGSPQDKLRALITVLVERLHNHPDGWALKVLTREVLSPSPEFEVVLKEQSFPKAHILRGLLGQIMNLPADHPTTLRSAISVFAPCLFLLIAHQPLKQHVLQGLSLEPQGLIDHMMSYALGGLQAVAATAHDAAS

Usually Kd stands for the free concentration of one partner at which half of the binding sites on the other are occupied at equilibrium, for simple one-to-one binding. Read a high Kd as weaker binding. As to `O=C(c1cc(Cl)c(Cl)[nH]1)c1c(O)cccc1O` [PLT, pyoluteorin], binding was put at a Kd of 1 µM.
